According to patent US20120115877A1, “Facially Amphiphilic Compounds, Compositions, And Uses Thereof In Treating Cancer” (POLYMEDIX, INC., priority 2010, published 2012):

Key:
Type in all cases: cell-based, human
Conditions in all cases: 10 μM
NCI-H322M = assay: NCI-60 screen, Non-Small Cell Lung Cancer
Procedure: (§1) Several compounds were tested at single concentrations (10 μM) against 59 different human tumor cell lines, representing leukemia, melanoma and cancers of the lung, colon, brain, ovary, breast, prostate, and kidney (see, Table 3). The human tumor cell lines of the cancer screening panel were grown in RPMI 1640 medium containing 5% fetal bovine serum and 2 mM L-glutamine. For a typical screening experiment, cells were inoculated into 96 well microtiter plates in 100 μL at plating densities ranging from 5,000 to 40,000 cells/well depending on the doubling time of individual cell lines. After cell inoculation, the microtiter plates were incubated at 37° C., 5% CO2, 95% air and 100% relative humidity for 24 hours prior to addition of the compounds.
(§2) After 24 hours, two plates of each cell line were fixed in situ with TCA, to represent a measurement of the cell population for each cell line at the time of drug addition (Tz). Compounds were solubilized in dimethyl sulfoxide at 400-fold the desired final maximum test concentration and stored frozen prior to use. At the time of drug addition, an aliquot of frozen concentrate was thawed and diluted to twice the desired final maximum test concentration with complete medium containing 50 μg/ml gentamicin. Additional four, 10-fold or ½ log serial dilutions were made to provide a total of five compound concentrations plus control. Aliquots of 100 μl of these different drug dilutions were added to the appropriate microtiter wells already containing 100 μl of medium, resulting in the required final compound concentrations.
(§3) Following drug addition, the plates were incubated for an additional 48 hours at 37° C., 5% CO2, 95% air, and 100% relative humidity. For adherent cells, the assay was terminated by the addition of cold TCA. Cells were fixed in situ by the gentle addition of 50 μl of cold 50% (w/v) TCA (final concentration, 10% TCA) and incubated for 60 minutes at 4° C. The supernatant was discarded, and the plates were washed five times with tap water and air dried. Sulforhodamine B (SRB) solution (100 μl) at 0.4% (w/v) in 1% acetic acid was added to each well, and plates were incubated for 10 minutes at room temperature. After staining, unbound dye was removed by washing five times with 1% acetic acid and the plates were air dried. Bound stain was subsequently solubilized with 10 mM trizma base, and the absorbance was read on an automated plate reader at a wavelength of 515 nm. For suspension cells, the methodology was the same except that the assay was terminated by fixing settled cells at the bottom of the wells by gently adding 50 μl of 80% TCA (final concentration, 16% TCA). Using the seven absorbance measurements (time zero, (Tz), control growth, (C), and test growth in the presence of drug at the five concentration levels (Ti)), the percentage growth was calculated at each of the compound concentrations levels. Percentage growth inhibition was calculated as:
(§4) [(Ti−Tz)/(C−Tz)]×100 for concentrations for which Ti>/=Tz
(§5) [(Ti−Tz)/Tz]×100 for concentrations for which Ti<Tz.
(§6) Three dose response parameters were calculated for each compound. Growth inhibition of 50% (GI50) was calculated from [(Ti−Tz)/(C−Tz)]×100=50, which is the compound concentration resulting in a 50% reduction in the net protein increase (as measured by SRB staining) in control cells during the compound incubation. The compound concentration resulting in total growth inhibition (TGI) was calculated from Ti=Tz. The LC50 (concentration of compound resulting in a 50% reduction in the measured protein at the end of the compound treatment as compared to that at the beginning) indicating a net loss of cells following treatment was calculated from [(Ti−Tz)/Tz]×100=−50. Values were calculated for each of these three parameters if the level of activity was reached; however, if the effect was not reached or was exceeded, the value for that parameter was expressed as greater or less than the maximum or minimum concentration tested.

EKVX = assay: NCI-60 screen, Non-Small Cell Lung Cancer
Procedure: as §1, §2, §3, §4, §5, §6

NCI-H522 = assay: NCI-60 screen, Non-Small Cell Lung Cancer
Procedure: as §1, §2, §3, §4, §5, §6

NCI-H23 = assay: NCI-60 screen, Non-Small Cell Lung Cancer
Procedure: as §1, §2, §3, §4, §5, §6

NCI-H460 = assay: NCI-60 screen, Non-Small Cell Lung Cancer
Procedure: as §1, §2, §3, §4, §5, §6

HOP-92 = assay: NCI-60 screen, Non-Small Cell Lung Cancer
Procedure: as §1, §2, §3, §4, §5, §6

A549/ATCC = assay: NCI-60 screen, Non-Small Cell Lung Cancer
Procedure: as §1, §2, §3, §4, §5, §6

A498 = assay: NCI-60 screen, Renal Cancer
Procedure: as §1, §2, §3, §4, §5, §6

TK-10 = assay: NCI-60 screen, Renal Cancer
Procedure: as §1, §2, §3, §4, §5, §6

RXF 393 = assay: NCI-60 screen, Renal Cancer
Procedure: as §1, §2, §3, §4, §5, §6

CAKI-1 = assay: NCI-60 screen, Renal Cancer
Procedure: as §1, §2, §3, §4, §5, §6

SN12C = assay: NCI-60 screen, Renal Cancer
Procedure: as §1, §2, §3, §4, §5, §6

UO-31 = assay: NCI-60 screen, Renal Cancer
Procedure: as §1, §2, §3, §4, §5, §6

ACHN = assay: NCI-60 screen, Renal Cancer
Procedure: as §1, §2, §3, §4, §5, §6

U251 = assay: NCI-60 screen, CNS Cancer
Procedure: as §1, §2, §3, §4, §5, §6

SF-295 = assay: NCI-60 screen, CNS Cancer
Procedure: as §1, §2, §3, §4, §5, §6

SF-268 = assay: NCI-60 screen, CNS Cancer
Procedure: as §1, §2, §3, §4, §5, §6

SNB-75 = assay: NCI-60 screen, CNS Cancer
Procedure: as §1, §2, §3, §4, §5, §6

SNB-19 = assay: NCI-60 screen, CNS Cancer
Procedure: as §1, §2, §3, §4, §5, §6

SF-539 = assay: NCI-60 screen, CNS Cancer
Procedure: as §1, §2, §3, §4, §5, §6

IGROV1 = assay: NCI-60 screen, Ovarian Cancer
Procedure: as §1, §2, §3, §4, §5, §6

OVCAR-3 = assay: NCI-60 screen, Ovarian Cancer
Procedure: as §1, §2, §3, §4, §5, §6

OVCAR-8 = assay: NCI-60 screen, Ovarian Cancer
Procedure: as §1, §2, §3, §4, §5, §6

OVCAR-5 = assay: NCI-60 screen, Ovarian Cancer
Procedure: as §1, §2, §3, §4, §5, §6

OVCAR-4 = assay: NCI-60 screen, Ovarian Cancer
Procedure: as §1, §2, §3, §4, §5, §6

NCI/ADR-RES = assay: NCI-60 screen, Ovarian Cancer
Procedure: as §1, §2, §3, §4, §5, §6

SK-OV-3 = assay: NCI-60 screen, Ovarian Cancer
Procedure: as §1, §2, §3, §4, §5, §6

c1cc(-c2ccc3sc4ccc(-c5ccnc(N6CCNCC6)c5)cc4c3c2)cc(N2CCNCC2)n1 [Compound E]
Percent Growth (NCI-H322M): −53.02% | Percent Growth (EKVX): 22.56% | Percent Growth (NCI-H522): −93.93% | Percent Growth (NCI-H23): 52.19% | Percent Growth (NCI-H460): −78.46% | Percent Growth (HOP-92): 32.76% | Percent Growth (A549/ATCC): −77.24% | Percent Growth (A498): 75.11% | Percent Growth (TK-10): −52.46% | Percent Growth (RXF 393): −70.65% | Percent Growth (CAKI-1): −13.76% | Percent Growth (SN12C): −16.99% | Percent Growth (UO-31): −41.12% | Percent Growth (ACHN): −69.18% | Percent Growth (U251): −85.72% | Percent Growth (SF-295): −50.65% | Percent Growth (SF-268): −37.05% | Percent Growth (SNB-75): −94.79% | Percent Growth (SNB-19): −43.97% | Percent Growth (SF-539): 14.26% | Percent Growth (IGROV1): −43.57% | Percent Growth (OVCAR-3): −94.47% | Percent Growth (OVCAR-8): −61.04% | Percent Growth (OVCAR-5): −46.66% | Percent Growth (OVCAR-4): −87.74% | Percent Growth (NCI/ADR-RES): 3.12% | Percent Growth (SK-OV-3): 51.66%

NCCSc1cc(SCCN)c(C(F)(F)F)cc1NC(=O)c1cc(C(=O)Nc2cc(C(F)(F)F)c(SCCN)cc2SCCN)ncn1 [Compound F]
Percent Growth (NCI-H322M): 55.48% | Percent Growth (EKVX): 75.72% | Percent Growth (NCI-H522): −2.5% | Percent Growth (NCI-H23): 60.86% | Percent Growth (NCI-H460): 47.73% | Percent Growth (HOP-92): −24.05% | Percent Growth (A549/ATCC): 15.81% | Percent Growth (A498): 69.6% | Percent Growth (TK-10): 21.48% | Percent Growth (RXF 393): 47.68% | Percent Growth (CAKI-1): 31.42% | Percent Growth (SN12C): 57.46% | Percent Growth (UO-31): 48.74% | Percent Growth (ACHN): 20.02% | Percent Growth (U251): 23.67% | Percent Growth (SF-295): 57.66% | Percent Growth (SF-268): 32.42% | Percent Growth (SNB-75): −20.24% | Percent Growth (SNB-19): 49.54% | Percent Growth (SF-539): 65.73% | Percent Growth (IGROV1): 4.7% | Percent Growth (OVCAR-3): −15.5% | Percent Growth (OVCAR-8): 14.34% | Percent Growth (OVCAR-5): 59.37% | Percent Growth (OVCAR-4): −1.474% | Percent Growth (NCI/ADR-RES): 54.76% | Percent Growth (SK-OV-3): 15.33%
